Experimental data: ChEMBL document CHEMBL1138550, “Adamantane derivatives of thiazolyl-N-substituted amide, as possible non-steroidal anti-inflammatory agents” (2009)

Experiments:
[1] = biological target: T1, Prostaglandin G/H synthase 2 (Homo sapiens) (UniProt P35354); experiment: Inhibition of human recombinant COX2 at 200 uM by enzyme immuno assay
T1 sequence (whole entry): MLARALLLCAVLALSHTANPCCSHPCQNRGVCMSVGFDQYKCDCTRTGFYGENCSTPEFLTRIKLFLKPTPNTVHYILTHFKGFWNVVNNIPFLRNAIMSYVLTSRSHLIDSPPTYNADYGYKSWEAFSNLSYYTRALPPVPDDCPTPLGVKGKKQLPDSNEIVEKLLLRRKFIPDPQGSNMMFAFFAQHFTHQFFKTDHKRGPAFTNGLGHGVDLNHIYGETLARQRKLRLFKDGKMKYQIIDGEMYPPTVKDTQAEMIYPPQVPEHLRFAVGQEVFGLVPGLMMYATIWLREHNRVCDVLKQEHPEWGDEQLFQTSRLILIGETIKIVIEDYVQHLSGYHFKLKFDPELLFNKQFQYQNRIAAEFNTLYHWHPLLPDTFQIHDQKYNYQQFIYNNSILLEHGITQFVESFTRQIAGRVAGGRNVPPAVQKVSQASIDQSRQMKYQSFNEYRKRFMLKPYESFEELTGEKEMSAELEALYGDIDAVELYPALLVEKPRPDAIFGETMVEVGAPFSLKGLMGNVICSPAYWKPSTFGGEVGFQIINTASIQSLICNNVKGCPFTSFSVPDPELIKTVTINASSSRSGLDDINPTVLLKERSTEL

[2] = tested on: Rattus norvegicus; experiment: Antiinflammatory activity in AKR rat assessed as inhibition of carrageenan-induced right hind paw oedema at 0.2 mmol/kg, ip coadministered with carrageenan relative to control; assay type: functional
[3] = biological target: T2, Prostaglandin G/H synthase 1 (Ovis aries) (UniProt P05979); experiment: Inhibition of ovine COX1 at 200 uM by enzyme immuno assay
T2 sequence (whole entry): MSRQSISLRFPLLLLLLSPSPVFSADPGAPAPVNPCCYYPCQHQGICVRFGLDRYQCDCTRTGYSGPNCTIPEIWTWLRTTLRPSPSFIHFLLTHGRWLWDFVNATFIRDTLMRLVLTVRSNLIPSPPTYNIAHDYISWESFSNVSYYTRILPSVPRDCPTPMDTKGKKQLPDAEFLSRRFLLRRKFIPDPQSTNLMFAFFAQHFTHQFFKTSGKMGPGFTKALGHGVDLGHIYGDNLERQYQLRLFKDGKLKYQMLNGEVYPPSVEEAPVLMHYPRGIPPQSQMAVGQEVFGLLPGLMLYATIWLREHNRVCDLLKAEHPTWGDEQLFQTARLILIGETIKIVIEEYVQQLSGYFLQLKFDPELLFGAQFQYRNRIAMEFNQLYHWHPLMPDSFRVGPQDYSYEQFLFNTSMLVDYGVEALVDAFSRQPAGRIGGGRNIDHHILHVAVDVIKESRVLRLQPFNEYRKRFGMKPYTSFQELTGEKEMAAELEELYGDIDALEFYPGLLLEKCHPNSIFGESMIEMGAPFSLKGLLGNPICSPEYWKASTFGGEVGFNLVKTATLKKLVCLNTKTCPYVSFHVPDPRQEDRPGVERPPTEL

[4] = biological target: T3, Seed linoleate 13S-lipoxygenase-1 (Glycine max) (UniProt P08170); experiment: Inhibition of soybean LOX1 at 100 uM
T3 sequence (whole entry): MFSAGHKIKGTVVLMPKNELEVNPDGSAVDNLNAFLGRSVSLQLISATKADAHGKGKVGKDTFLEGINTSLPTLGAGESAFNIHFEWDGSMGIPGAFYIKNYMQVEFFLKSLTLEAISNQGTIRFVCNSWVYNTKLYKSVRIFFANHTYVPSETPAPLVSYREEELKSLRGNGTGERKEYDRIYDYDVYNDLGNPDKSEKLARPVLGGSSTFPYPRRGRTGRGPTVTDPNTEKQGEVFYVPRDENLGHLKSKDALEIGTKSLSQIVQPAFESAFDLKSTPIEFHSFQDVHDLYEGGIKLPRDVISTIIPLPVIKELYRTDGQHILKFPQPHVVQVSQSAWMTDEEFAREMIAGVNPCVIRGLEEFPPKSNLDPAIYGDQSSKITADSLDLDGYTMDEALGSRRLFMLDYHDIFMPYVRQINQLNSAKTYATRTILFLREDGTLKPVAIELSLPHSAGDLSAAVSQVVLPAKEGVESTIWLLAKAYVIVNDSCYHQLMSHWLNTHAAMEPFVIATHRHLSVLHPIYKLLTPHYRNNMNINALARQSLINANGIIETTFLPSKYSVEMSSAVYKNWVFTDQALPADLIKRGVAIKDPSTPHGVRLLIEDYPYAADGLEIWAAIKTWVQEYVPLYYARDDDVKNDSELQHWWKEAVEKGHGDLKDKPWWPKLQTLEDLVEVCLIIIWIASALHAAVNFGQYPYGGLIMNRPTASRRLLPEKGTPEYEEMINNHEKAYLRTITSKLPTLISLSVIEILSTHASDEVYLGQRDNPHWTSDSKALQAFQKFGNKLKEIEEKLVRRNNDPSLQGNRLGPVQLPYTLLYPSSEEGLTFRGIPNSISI

[5] = biological target: T1, Prostaglandin G/H synthase 2 (Homo sapiens); experiment: Inhibition of human recombinant COX2 at 20 uM by enzyme immuno assay
[6] = biological target: T2, Prostaglandin G/H synthase 1 (Ovis aries); experiment: Inhibition of ovine COX1 at 20 uM by enzyme immuno assay

SMILES: O=C(CN1CCOCC1)Nc1nc(C23CC4CC(CC(C4)C2)C3)cs1
- inhibition [1]: 35.3%
- inhibition in vivo at 200 µmol/kg [2]: 57.8%
- inhibition [3]: 27.9%
- inhibition [4]: 0%

SMILES: COc1ccc(-c2csc(NC(=O)CN3CCCCC3)n2)cc1
- inhibition in vivo at 200 µmol/kg [2]: 53.3%

SMILES: COc1ccc(-c2csc(NC(=O)CCN3CCOCC3)n2)cc1
- inhibition in vivo at 200 µmol/kg [2]: 55.4%

SMILES: CN(C)CC(=O)Nc1nc(C23CC4CC(CC(C4)C2)C3)cs1
- inhibition [1]: 3.6%
- inhibition in vivo at 200 µmol/kg [2]: 48%
- inhibition [3]: 25%
- inhibition [4]: 26.4%

SMILES: CN(C)CC(=O)Nc1nc(-c2ccccc2)cs1
- inhibition in vivo at 200 µmol/kg [2]: 52%

SMILES: Cc1csc(NC(=O)CN(C)C)n1
- inhibition in vivo at 200 µmol/kg [2]: 37.6%

SMILES: O=C(CN1CCCCC1)Nc1nc(C23CC4CC(CC(C4)C2)C3)cs1
- inhibition in vivo at 200 µmol/kg [2]: 26.6%
- inhibition [4]: 0%

SMILES: O=C(CCN1CCCC1)Nc1nccs1
- inhibition in vivo at 200 µmol/kg [2]: 64.1%

SMILES: COc1ccc(-c2csc(NC(=O)CCN3CCCC3)n2)cc1
- inhibition in vivo at 200 µmol/kg [2]: 56.2%

SMILES: CN1CCN(CC(=O)Nc2nc(C34CC5CC(CC(C5)C3)C4)cs2)CC1
- inhibition in vivo at 200 µmol/kg [2]: 30%

SMILES: O=C(CN1CCN(c2ccccc2)CC1)Nc1nccs1
- inhibition in vivo at 200 µmol/kg [2]: 72.1%

SMILES: COc1ccc(-c2csc(NC(=O)CN(C)C)n2)cc1
- inhibition in vivo at 200 µmol/kg [2]: 35%

SMILES: O=C(CCN1CCOCC1)Nc1nc(C23CC4CC(CC(C4)C2)C3)cs1
- inhibition in vivo at 200 µmol/kg [2]: 49.2%
- inhibition [4]: 8.4%

SMILES: O=C(CCN1CCCC1)Nc1nc(-c2ccccc2)cs1
- inhibition in vivo at 200 µmol/kg [2]: 68.4%

SMILES: O=C(CN1CCN(c2ccccc2)CC1)Nc1nc(C23CC4CC(CC(C4)C2)C3)cs1
- inhibition [1]: 15.8%
- inhibition in vivo at 200 µmol/kg [2]: 47.6%
- inhibition [3]: 43.6%
- inhibition [4]: 33%

SMILES: O=C(CN1CCCC1)Nc1nc(-c2ccccc2)cs1
- inhibition in vivo at 200 µmol/kg [2]: 49.2%

SMILES: CN(C)CC(=O)Nc1nccs1
- inhibition in vivo at 200 µmol/kg [2]: 28.4%

SMILES: O=C(CN1CCCC1)Nc1nc(C23CC4CC(CC(C4)C2)C3)cs1
- inhibition [1]: 12.2%
- inhibition in vivo at 200 µmol/kg [2]: 69.7%
- inhibition [3]: 33.6%
- inhibition [4]: 5%

SMILES: O=C(CCN1CCN(c2ccccc2)CC1)Nc1nc(C23CC4CC(CC(C4)C2)C3)cs1
- inhibition [5]: 17.3%
- inhibition in vivo at 200 µmol/kg [2]: 55.9%
- inhibition [4]: 39%
- inhibition [6]: 28.6%

SMILES: COc1ccc(-c2csc(NC(=O)CN3CCCC3)n2)cc1
- inhibition in vivo at 200 µmol/kg [2]: 55%

SMILES: CN(C)CCC(=O)Nc1nc(C23CC4CC(CC(C4)C2)C3)cs1
- inhibition [1]: 8.6%
- inhibition in vivo at 200 µmol/kg [2]: 81.5%
- inhibition [3]: 25%
- inhibition [4]: 1%

SMILES: O=C(CCN1CCCC1)Nc1nc(C23CC4CC(CC(C4)C2)C3)cs1
- inhibition in vivo at 200 µmol/kg [2]: 36.8%
